The subject of assay [1] is SHR/L-NAME model of hypertension. In words: Cardiac hypertrophy and fibrosis in L-NAME-treated SHRs. In kind it is in vivo, rat. The method, then:
12-14 week old male SHRs were randomized to receive vehicle, L-NAME (50 mg/L) or L-NAME and 4μ8c (2.5 mg/kg/day i.p.) for 18 days. (A) Cardiac hypertrophy measured using heart weight to body ratio. (B) Quantification of Picro-Sirius Red-stained area in heart tissue. (C) Picro-Sirius Red staining of transverse heart sections. Bar: 4×, 500 μm; 20×, 200 μm. Data is presented as mean±SEM. *, p<0.05 vs. NT. #, p<0.05 vs L-NAME.
12-14 week old male SHRs were used to determine the effect of pharmacological IRE1α inhibition on L-NAME-induced vascular stiffening. They were maintained on a 12-hour light-dark cycle with rat chow and water ad libitium. Animals were implanted with radio-telemetry devices (Data Science International, St. Paul, Minn., USA) one week before the start of the study. Animals were randomized into one of three groups (n=6 per group): 1) No treatment, 2) L-NAME (50 mg/L in drinking water, Sigma-Aldrich), or 3) L-NAME+4μ8c (2.5 mg/kg/day i.p., Millipore). 4μ8c was administered in a vehicle of 10% DMSO, 10% Tween-80 and 80% normal saline. Animals in Group 2 received daily injections of the vehicle. All animals were fed a normal chow diet. […]
Tissues were fixed in 4% paraformaldehyde and subsequently embedded in paraffin. […] Collagen area density was calculated by dividing the PSR-stained area by the total area of the vessel.

Assay [2] shares this test system. In words: Vascular stiffness by wire myograph in L-NAME-treated SHRs. Conditions: L-NAME+4μ8c group, 18 days, maximally relaxed vessels. The assay is classed as in vivo, rat. As to the method: 12-14 week old male SHRs were randomized to receive vehicle, L-NAME (50 mg/L) or L-NAME and 4μ8c (2.5 mg/kg/day i.p.) for 18 days. Aortas and carotid arteries were removed at sacrifice for mechanical and structural analysis. (A) Picro-Sirius Red staining of aorta and carotid artery sections (B) Determination of soluble collagen content in aorta and carotid arteries by Picro-Sirius Red-based assay. Stress-strain curves (C,E), elastic modulus-stress lines (D,F) and the slope of the elastic modulus-stress lines (G,H) were calculated. Data is presented as mean±SEM. *, p<0.05 vs. NT; #, p<0.05 vs. L-NAME. N≥4 per group; 2-5 segments of the thoracic aorta were analyzed per animal. […]
Vessels were mounted on a steel wire myograph and incubated in Ca^2±-free Hank's Basic Salt Solution containing 100 μM sodium nitroprusside to ensure maximum relaxation. […] Images of the vessels at each incremental tension were captured and lumen diameters were measured with ImageJ software. Circumferential stress (a) was calculated as F/tl, where F is the tension in the vessel wall, t is the radial thickness of the vessel wall and 1 is the axial length of the aortic ring. Circumferential strain (c) was calculated as (D−D0)/D0 where D is the lumen diameter at a given tension and D0 is the initial diameter under maximally relaxed conditions. […]

The subject of assay [3] is primary rat renal fibroblasts. The assay is described as follows: Picro-Sirius Red assay of collagen production in renal fibroblasts. The assay is classed as cell-based. Conditions: AA2P, TGF-β1, 72 h co-treatment, FIG. 3. As to the method: Rat renal fibroblasts were treated with L-ascorbic acid-2-phosphate, TGF-β1 and 4μ8c for 72 h. Collagen production was measured by a Picro-Sirius Red assay. **, p<0.01.
VSMCs were isolated from the aortas of 5-week old WKY rats using the explant method^29. The thoracic aorta was removed from the animal and placed in ice-cold 5× Antibiotics-Antimycotics solution (ThermoFisher). The adventitia was gently removed and the aorta was cut longitudinally. The endothelial layer was removed by gentle scraping with forceps. The aorta was cut into 3 mm^2 squares and placed on a 6 well plate in DMEM/F12 medium containing 10% fetal bovine serum (FBS). Explants were incubated undisturbed in a 5% CO2 incubator at 37° C. for 1 week and then passaged. Sprague-Dawley renal fibroblasts were purchased (Cell Biologics) and cultured in low glucose DMEM/F12 medium containing 10% FBS, streptomycin (100 μgimp, and penicillin (100 U/ml, Invitrogen, Burlington, ON). Cells between passages 5 and 10 were used for experiments. Cells were cultured in medium containing 1% FBS overnight before treatment.
Collagen synthesis was measured using a Picro-Sirius Red-based assay as previously described^30. Briefly, cells cultured on a 96 well plate were fixed in methanol for 10 minutes at −20° C. […] Absorbance at 540 nm was measured using a Spectramax Plus Microplate Reader (Molecular Devices). […]

For the compound `Cc1cc(=O)oc2c(C=O)c(O)ccc12` [4μ8c, 7-Hydroxy-4-methyl-2-oxo-2H-chromene-8-carbaldehyde], the “fibrosis in the left and right ventricles by PSR staining” value in assay [1] (4μ8c-treated animals vs L-NAME group, FIGS. 7B and 7C) is recorded as “significantly reduced”. The “cardiac hypertrophy (heart weight to body weight ratio)” value in assay [1] (L-NAME+4μ8c group, 18 days, FIG. 7A) is recorded as 4.293±0.438 mg HW/g BW. Also, in assay [2], the “slope of the elastic modulus-stress line, carotid artery” value is 14.42±0.59 and the “slope of the incremental elastic modulus versus stress line, aorta” value is listed as 3.970±0.129. The “collagen levels in response to TGF-β1” value in assay [3] is reported as “reduced”.

For the origin of these results see patent US20190038597A1, “PREVENTION OF VASCULAR AND CARDIAC FIBROSIS VIA IRE1ALPHA INHIBITION” (McMaster University, priority 2017, published 2019).
